In the OligoGym collection:
HELM strings list units from the 5' end as sugar, base in round brackets, then linkage (d deoxyribose, r ribose, m 2'-O-methyl, p phosphodiester). Strings are as the collection lists them; they lack the last nucleoside at the 3' end of the tested compound. [moe] = 2'-O-(2-methoxyethyl) (MOE); [sp] = phosphorothioate linkage; [m5C] = 5-methylcytosine

Target: SCN2A
Assay: mouse, dose not given
Conditions: ASO

Substance	3 h FOB score
RNA1{[moe](G)[sp].[moe](A)p.[moe](A)p.[moe](T)p.[moe](T)p.[moe]([m5C])p.d(T)[sp].d(A)[sp].d(T)[sp].d(T)[sp].d(T)[sp].d(T)[sp].d(A)[sp].d(T)[sp].d(A)[sp].d(A)[sp].[moe](A)p.[moe](T)[sp].[moe](G)}$$$$ (last 3' nucleoside missing)	1 score 0-7
RNA1{[moe](T)[sp].[moe](G)p.[moe]([m5C])p.[moe](A)p.[moe](T)p.[moe](A)p.d(A)[sp].d(T)[sp].d([m5C])[sp].d([m5C])[sp].d([m5C])[sp].d(A)[sp].d(T)[sp].d(T)[sp].d(A)[sp].d(T)[sp].[moe](A)p.[moe]([m5C])[sp].[moe](A)}$$$$ (last 3' nucleoside missing)	0 score 0-7
RNA1{[moe](T)[sp].[moe]([m5C])p.[moe](A)p.[moe](G)p.d([m5C])[sp].d(A)[sp].d(T)[sp].d(G)[sp].d(T)[sp].d(T)[sp].d(T)[sp].d(A)[sp].d(T)[sp].d([m5C])[sp].[moe](T)p.[moe](T)p.[moe](A)p.[moe](G)[sp].[moe](T)}$$$$ (last 3' nucleoside missing)	2.33 score 0-7
RNA1{[moe](G)[sp].[moe]([m5C])p.[moe](A)p.[moe](T)p.[moe](G)[sp].d(T)[sp].d(A)[sp].d(A)[sp].d([m5C])[sp].d([m5C])[sp].d(T)[sp].d(T)[sp].d(T)[sp].[moe](A)p.[moe](T)p.[moe](A)[sp].[moe]([m5C])}$$$$ (last 3' nucleoside missing)	0 score 0-7
RNA1{[moe]([m5C])[sp].[moe](A)p.[moe](T)p.[moe](T)p.d(T)[sp].d([m5C])[sp].d(T)[sp].d(A)[sp].d(T)[sp].d(A)[sp].d(A)[sp].d([m5C])[sp].d(T)[sp].d([m5C])[sp].[moe](A)p.[moe](G)p.[moe]([m5C])p.[moe](A)[sp].[moe](A)}$$$$ (last 3' nucleoside missing)	0 score 0-7
RNA1{[moe](A)[sp].[moe]([m5C])p.[moe](A)p.[moe](T)p.d(A)[sp].d(T)[sp].d(T)[sp].d(T)[sp].d(T)[sp].d(T)[sp].d([m5C])[sp].d(T)[sp].d(A)[sp].d([m5C])[sp].[moe](A)p.[moe]([m5C])p.[moe](T)p.[moe](G)[sp].[moe]([m5C])}$$$$ (last 3' nucleoside missing)	0.33 score 0-7
RNA1{[moe](T)[sp].[moe]([m5C])p.[moe](T)p.[moe](A)p.[moe](T)p.[moe](T)[sp].d(T)[sp].d(T)[sp].d(A)[sp].d(T)[sp].d(A)[sp].d(A)[sp].d(A)[sp].d(T)[sp].[moe](G)p.[moe]([m5C])[sp].[moe]([m5C])}$$$$ (last 3' nucleoside missing)	1 score 0-7
RNA1{[moe](T)[sp].[moe]([m5C])p.[moe](T)p.[moe](T)p.d(T)[sp].d([m5C])[sp].d(T)[sp].d(T)[sp].d(A)[sp].d(T)[sp].d(T)[sp].d(T)[sp].d([m5C])[sp].d(T)[sp].[moe](G)p.[moe](T)p.[moe](T)p.[moe](T)[sp].[moe]([m5C])}$$$$ (last 3' nucleoside missing)	0 score 0-7
RNA1{[moe]([m5C])[sp].[moe](T)p.[moe](G)p.[moe](G)p.[moe](A)p.d([m5C])[sp].d([m5C])[sp].d(G)[sp].d(T)[sp].d([m5C])[sp].d(T)[sp].d([m5C])[sp].d(T)[sp].d(T)[sp].d(T)[sp].[moe]([m5C])p.[moe](T)p.[moe](T)[sp].[moe](A)}$$$$ (last 3' nucleoside missing)	1 score 0-7
RNA1{[moe](A)[sp].[moe](T)p.[moe](G)p.[moe](T)p.[moe](A)p.d(A)[sp].d(T)[sp].d([m5C])[sp].d(A)[sp].d([m5C])[sp].d(T)[sp].d(T)[sp].d(T)[sp].d([m5C])[sp].d(A)[sp].[moe](T)p.[moe]([m5C])p.[moe]([m5C])[sp].[moe](A)}$$$$ (last 3' nucleoside missing)	0 score 0-7
RNA1{[moe](T)[sp].[moe]([m5C])p.[moe](T)p.[moe](A)p.[moe](T)[sp].d(T)[sp].d(T)[sp].d(T)[sp].d(A)[sp].d(T)[sp].d(A)[sp].d(A)[sp].d(A)[sp].[moe](T)p.[moe](G)p.[moe]([m5C])[sp].[moe]([m5C])}$$$$ (last 3' nucleoside missing)	1.33 score 0-7
RNA1{[moe]([m5C])[sp].[moe](A)p.[moe](T)p.[moe](G)[sp].d(T)[sp].d(A)[sp].d(A)[sp].d([m5C])[sp].d([m5C])[sp].d(T)[sp].d(T)[sp].d(T)[sp].[moe](A)p.[moe](T)p.[moe](A)p.[moe]([m5C])[sp].[moe](A)}$$$$ (last 3' nucleoside missing)	0 score 0-7
RNA1{[moe](A)[sp].[moe]([m5C])p.[moe]([m5C])p.[moe]([m5C])p.[moe](A)p.d(G)[sp].d(T)[sp].d(T)[sp].d(T)[sp].d(T)[sp].d(T)[sp].d(T)[sp].d([m5C])[sp].d(A)[sp].d(T)[sp].[moe](T)p.[moe](G)p.[moe]([m5C])[sp].[moe](A)}$$$$ (last 3' nucleoside missing)	0 score 0-7
RNA1{[moe](T)[sp].[moe](T)p.[moe](G)p.[moe](G)p.[moe](G)p.d(T)[sp].d([m5C])[sp].d(T)[sp].d([m5C])[sp].d(T)[sp].d(T)[sp].d(A)[sp].d(G)[sp].d([m5C])[sp].d(T)[sp].[moe](T)p.[moe](T)p.[moe]([m5C])[sp].[moe](T)}$$$$ (last 3' nucleoside missing)	2.67 score 0-7
RNA1{[moe]([m5C])[sp].[moe](A)p.[moe](T)p.[moe](G)p.[moe](T)p.d(A)[sp].d(A)[sp].d([m5C])[sp].d([m5C])[sp].d(T)[sp].d(T)[sp].d(T)[sp].d(A)[sp].d(T)[sp].d(A)[sp].[moe]([m5C])p.[moe](A)p.[moe](T)[sp].[moe](T)}$$$$ (last 3' nucleoside missing)	0 score 0-7
RNA1{[moe](T)[sp].[moe](G)p.[moe](T)p.[moe](T)p.[moe](T)p.d(G)[sp].d(G)[sp].d(G)[sp].d(T)[sp].d([m5C])[sp].d(T)[sp].d([m5C])[sp].d(T)[sp].d(T)[sp].d(A)[sp].[moe](G)p.[moe]([m5C])p.[moe](T)[sp].[moe](T)}$$$$ (last 3' nucleoside missing)	2.33 score 0-7
RNA1{[moe]([m5C])[sp].[moe](T)p.[moe]([m5C])p.[moe](T)p.[moe](T)p.d(T)[sp].d([m5C])[sp].d(T)[sp].d(T)[sp].d(A)[sp].d(T)[sp].d(T)[sp].d(T)[sp].d([m5C])[sp].d(T)[sp].[moe](G)p.[moe](T)p.[moe](T)[sp].[moe](T)}$$$$ (last 3' nucleoside missing)	0 score 0-7
RNA1{[moe](A)[sp].[moe]([m5C])p.[moe]([m5C])p.[moe](G)p.[moe](A)p.d(A)[sp].d(T)[sp].d(T)[sp].d([m5C])[sp].d(T)[sp].d(A)[sp].d(T)[sp].d(T)[sp].d(T)[sp].d(T)[sp].[moe](A)p.[moe](T)p.[moe](A)[sp].[moe](A)}$$$$ (last 3' nucleoside missing)	1.67 score 0-7
RNA1{[moe](G)[sp].[moe]([m5C])p.[moe](A)p.[moe](T)p.[moe](G)p.d(T)[sp].d(T)[sp].d(T)[sp].d(A)[sp].d(T)[sp].d([m5C])[sp].d(T)[sp].d(T)[sp].d(A)[sp].d(G)[sp].[moe](T)p.[moe](T)p.[moe]([m5C])[sp].[moe](T)}$$$$ (last 3' nucleoside missing)	1 score 0-7
RNA1{[moe](G)[sp].[moe](G)p.[moe](A)p.[moe]([m5C])p.d([m5C])[sp].d(G)[sp].d(T)[sp].d([m5C])[sp].d(T)[sp].d([m5C])[sp].d(T)[sp].d(T)[sp].d(T)[sp].d([m5C])[sp].[moe](T)p.[moe](T)p.[moe](A)p.[moe](T)[sp].[moe](T)}$$$$ (last 3' nucleoside missing)	1 score 0-7
RNA1{[moe](G)[sp].[moe](G)p.[moe](A)p.[moe](T)p.[moe](A)p.d(G)[sp].d(T)[sp].d(G)[sp].d([m5C])[sp].d(T)[sp].d([m5C])[sp].d([m5C])[sp].d(A)[sp].d(T)[sp].d(A)[sp].[moe](G)p.[moe]([m5C])p.[moe]([m5C])[sp].[moe](A)}$$$$ (last 3' nucleoside missing)	2 score 0-7
RNA1{[moe](T)[sp].[moe](G)p.[moe]([m5C])p.[moe](A)p.d(T)[sp].d(G)[sp].d(T)[sp].d(A)[sp].d(A)[sp].d([m5C])[sp].d([m5C])[sp].d(T)[sp].d(T)[sp].d(T)[sp].[moe](A)p.[moe](T)p.[moe](A)p.[moe]([m5C])[sp].[moe](A)}$$$$ (last 3' nucleoside missing)	0 score 0-7
RNA1{[moe](T)[sp].[moe]([m5C])p.[moe](T)p.[moe]([m5C])p.d(T)[sp].d(T)[sp].d(T)[sp].d([m5C])[sp].d(T)[sp].d(T)[sp].d(A)[sp].d(T)[sp].d(T)[sp].d(T)[sp].[moe]([m5C])p.[moe](T)p.[moe](G)p.[moe](T)[sp].[moe](T)}$$$$ (last 3' nucleoside missing)	0 score 0-7
RNA1{[moe](G)[sp].[moe](A)p.[moe](A)p.[moe](A)p.[moe](G)p.d(T)[sp].d(A)[sp].d(G)[sp].d(T)[sp].d(A)[sp].d([m5C])[sp].d([m5C])[sp].d(A)[sp].d(T)[sp].d(T)[sp].[moe]([m5C])p.[moe]([m5C])p.[moe]([m5C])[sp].[moe](A)}$$$$ (last 3' nucleoside missing)	1.67 score 0-7
RNA1{[moe](A)[sp].[moe]([m5C])p.[moe]([m5C])p.[moe]([m5C])p.[moe](A)p.[moe](G)[sp].d(T)[sp].d(T)[sp].d(T)[sp].d(T)[sp].d(T)[sp].d(T)[sp].d([m5C])[sp].d(A)[sp].[moe](T)p.[moe](T)[sp].[moe](G)}$$$$ (last 3' nucleoside missing)	2 score 0-7
RNA1{[moe]([m5C])[sp].[moe](G)p.[moe](A)p.[moe](A)p.[moe](T)p.[moe](T)p.d([m5C])[sp].d(T)[sp].d(A)[sp].d(T)[sp].d(T)[sp].d(T)[sp].d(T)[sp].d(A)[sp].d(T)[sp].d(A)[sp].[moe](A)p.[moe](A)[sp].[moe](T)}$$$$ (last 3' nucleoside missing)	2.33 score 0-7
RNA1{[moe]([m5C])[sp].[moe](A)p.[moe](T)p.[moe](G)p.[moe](T)p.[moe](A)p.d(A)[sp].d(T)[sp].d([m5C])[sp].d(A)[sp].d([m5C])[sp].d(T)[sp].d(T)[sp].d(T)[sp].d([m5C])[sp].d(A)[sp].[moe](T)p.[moe]([m5C])[sp].[moe]([m5C])}$$$$ (last 3' nucleoside missing)	0 score 0-7
